Where two headings read alike, the source gives them in different places.

The values below come from article PMC11277004, “Di- and Triselenoesters—Promising Drug Candidates for the Future Therapy of Triple-Negative Breast Cancer” (International Journal of Molecular Sciences, 2024).

Holding throughout (type): cell-based, human
One test concerns caspase 7. Briefly: Caspase 3/7 activity (FAM-FLICA, flow cytometry), MCF-7. Particulars: MCF-7 (lack caspase 3), 24 h. On the procedure:
(§1) The FAM-FLICA® Caspase Assay kits (all from ImmunoChemistry Technologies, Bloomington, MN, USA) and flow cytometer (BD FACSCanto II, BD Biosciences Systems, San Jose, CA, USA) were used to evaluate the activity of caspase 3/7, 8, and 9. MCF-7 and MDA-MB-231 cells were treated with selenoesters under the study (EDAG-1 and EDAG-8) and a reference agent (cisplatin) at two different concentrations (0.5 and 1 µM; treatment duration: 24 h). Following this, cells were collected, washed twice with cold PBS, and resuspended in an Apoptosis Wash Buffer to a final concentration of 5 × 10^5 cells/mL. In the next step, 290 µL each of cell suspension was taken and transferred into tubes. Then 10 µL of FLICA solution diluted immediately before use (1:5 v/v, using PBS) was added to the cells, mixed by pipetting, and incubated in the dark for 1 h at 37 °C. After this time, the cells were washed twice with 2 mL Apoptosis Wash Buffer, centrifuged, and resuspended in 300 µL of the buffer. Thus, prepared samples were immediately analyzed using a BD FACSCanto II flow cytometer (10,000 events) with the FACSDiva 6.0 software (both from BD Biosciences Systems, San Jose, CA, USA). The equipment calibration was carried out using the BD Cytometer Setup and Tracking Beads (BD Biosciences, San Diego, CA, USA).

The next test has as its system caspase 9. The experiment in a line: Caspase 9 activity (FAM-FLICA, flow cytometry), MCF-7. The conditions noted are these: 24 h. On the procedure: as §1
For orientation: In flow cytometry, cells or beads pass a laser one at a time.

Test [1] has as its system MCF-7 breast cancer cells. Briefly: MTT cytotoxicity test, MCF-7. The conditions noted are these: MCF-7, 24 h incubation, read-out: IC50, cell viability (MTT). On the procedure:
MCF-7 and MDA-MB-231 human breast cancer cell lines, as well as MCF-10A normal human breast epithelial cells, were acquired from the American Type Culture Collection (ATCC, Manassas, VA, USA). The characteristics of the breast cancer cell lines used in this study are compared in Table 1. MCF-7 and MDA-MB-231 cells were cultured in Dulbecco’s modified Eagle’s medium (Gibco, San Diego, CA, USA), while MCF-10A cells were cultured in the mammary epithelial cell growth medium with the following supplements: BPE, hEGF, insulin, hydrocortisone, GA-1000 (Lonza, Basel, Switzerland). All media were complemented by 10% of fetal bovine serum (FBS) and 1% of the following antibiotics: penicillin and streptomycin (both Gibco, San Diego, CA, USA). The cells were maintained in an incubator that provides the optimal growth conditions for the cell culture: 5% CO2, 37 °C, and humidity in a range of 90–95%. The cells were cultured in 100 mm plates (Sarstedt, Newton, NC, USA). Subsequently, after obtaining a subconfluent cell culture, the cells were detached with 0.05% trypsin with 0.02% EDTA (Gibco, San Diego, CA, USA). […] In this study, cells that obtained 80% confluence were used. The MTT assay was used to determine the cytotoxic effects of the compounds in the study on MCF-7 and MDA-MB-231 breast cancer cells as well as MCF-10A normal human breast epithelial cells based on Carmichael’s method. […] After this time, the medium was removed, and the cell monolayer was washed with warm phosphate-buffered saline (PBS) without calcium and magnesium. In the next step, PBS and MTT solution in PBS (5 mg/mL) were added to each well to obtain a final MTT concentration of 0.5 mg/mL, and then the cells were incubated for 4 h (37 °C temperature, 5% CO2, 90–95% humidity). After the incubation period, the contents of each well were removed, 1 mL of DMSO was added to dissolve the formazan, and then the plate with the added DMSO was mixed for 5–10 min on a microplate shaker (Boeco, Hamburg, Germany). Then, 10 µL of Sorensen’s glycine buffer (a solution of 0.1 M glycine and 0.1 M sodium chloride adjusted to pH 10.5 with 0.1 M sodium hydroxide) was added. The absorbance of the obtained solution was immediately measured at a wavelength of λ = 570 nm using a Thermo Scientific Evolution 201 UV–VIS spectrophotometer (Thermo Fisher Scientific, Waltham, MA, USA). The absorbance result obtained in the control cells (without the addition of the tested compounds) was taken as 100%, while the viability of cells incubated with the tested compounds was presented as a percentage of the control value.
Background: Tetrazolium assays rely on reduction of a dye to a coloured formazan, in cell work by metabolically active cells.

In test [2] the test system is MCF-7 breast cancer cells. The experiment in a line: Mitochondrial membrane potential (JC-1, flow cytometry), MCF-7. Particulars: 24 h. On the procedure: The entire cell staining and cytometric analysis procedures were performed according to the instructions provided with the kit. In the first step, the cells (1 × 10^6 cells/sample) were washed and resuspended in 0.5 mL of buffer containing 10 µg/mL JC-1 dye. Incubation was carried out for 15 min at room temperature, protected from light. Afterward, the cells were washed twice with buffer, resuspended in 0.5 mL PBS, and immediately analyzed using a flow cytometer (BD FACSCanto II; 10,000 events measured) and the FACSDiva 6.0 software (BD Biosciences Systems, San Jose, CA, USA) to count the percentage of cells with reduced ΔΨm. The equipment was calibrated with the BD Cytometer Setup and Tracking Beads (BD Biosciences, San Diego, CA, USA).

Another test relates to caspase 8. The experiment in a line: Caspase 8 activity (FAM-FLICA, flow cytometry), MCF-7. The conditions noted are these: 24 h. On the procedure:
as §1

In another test the test system is LC3A/B. Briefly: LC3A/B protein level by flow cytometry, MCF-7. The conditions noted are these: 24 h. The procedure: For this purpose, Akt (PE), Bax (FITC), Bcl-2 (Alexa Fluor® 647), LC3A/B (Alexa Fluor® 488), and p53 (Alexa Fluor® 488) antibodies conjugated to different fluorochromes (all from Cell Signaling Technology, Beverly, MA, USA) were utilized. Each assay was performed according to the manufacturer's protocol available on their website. After incubation with the tested compounds, the cells were centrifuged, resuspended in 4% formaldehyde (100 μL/1 × 10^6 cells), and fixed for 15 min at room temperature. Afterward, to remove the formaldehyde, the cells were washed by centrifugation with excess PBS and the permeabilization step was triggered. For this purpose, ice-cold 90% methanol was added to the pre-chilled cell pellet, gently vortexed, and incubated for 1 h on ice. Later, the cells were washed by centrifugation with excess PBS again, resuspended in 100 μL of 1:100 diluted primary antibody (stain buffer was used for dilution), and incubated for 1 h at room temperature in the dark. After incubation, the cells were washed, resuspended in 300 μL PBS, and immediately tested with a flow cytometer (BD FACSCanto II, BD Biosciences Systems, San Jose, CA, USA; 10,000 events measured). The obtained results were analyzed using the FACSDiva 6.0 software (BD Biosciences Systems, San Jose, CA, USA). In the case of the p53 protein, the MRF values were obtained first during the flow cytometer readout utilizing FACSDiva software and later analyzed using FCS Express 7 (De Novo Software, Pasadena, CA, USA). The equipment calibration was performed using the BD Cytometer Setup and Tracking Beads (BD Biosciences, San Diego, CA, USA).

As to `N.N.[Cl][Pt][Cl]` [Cisplatin, reference compound], the “Active caspase 7 ± SD (cells)” value is reported as 4.3 ± 0.3% with caspase 7 (0.5 μM) and 4.6 ± 0.3% in the test on caspase 7 (1 μM). The “Active caspase 9 ± SD (cells)” value was determined as 5.9 ± 0.1% in the test on caspase 9 (MCF-7, 0.5 μM) and 6.1 ± 0.6% in the test with caspase 9 (MCF-7, 1 μM). The IC50 in test [1] was more than 5000 nM. Besides, the “Decreased ΔΨm ± SD (cells)” value in test [2] (MCF-7, 0.5 μM) was found to be 6.3 ± 1.6%; in test [2] (MCF-7, 1 μM), 7.2 ± 0.4%. The “Active caspase 8 ± SD (cells)” value in the test on caspase 8 (MCF-7, 0.5 μM) stood at 3.7 ± 0.2%; in the test with caspase 8 (MCF-7, 1 μM), 4.1 ± 0.2%. Also, the “LC3A/B positive cells ± SD” value with LC3A/B (MCF-7, 0.5 μM) is 3.3 ± 0.5%; in the test on LC3A/B (MCF-7, 1 μM), 3.5 ± 0.4%.

Turning to `CC(=O)C[Se]C(=O)c1ccc(C(=O)[Se]CC(C)=O)cc1` [EDAG-1, Se,Se-bis(2-oxopropyl) benzene-1,4-bis(carboselenoate)], the “Active caspase 7 ± SD (cells)” value was 5.7 ± 0.5% in the test on caspase 7 (0.5 μM) and 6.9 ± 0.5% with caspase 7 (1 μM). The “Active caspase 9 ± SD (cells)” value in the test with caspase 9 (MCF-7, 0.5 μM) worked out at 7.1 ± 0.7%; in the test on caspase 9 (MCF-7, 1 μM), 12.8 ± 1.4%. Moreover, the IC50 in test [1] (Homo sapiens, MCF7) was determined as 470 ± 60 nM. Further, the “Decreased ΔΨm ± SD (cells)” value amounted to 10.0 ± 0.4% in test [2] (MCF-7, 0.5 μM) and 15.3 ± 1.1% in test [2] (MCF-7, 1 μM). In addition, the “Active caspase 8 ± SD (cells)” value in the test with caspase 8 (MCF-7, 0.5 μM) is reported as 6.1 ± 0.6%; with caspase 8 (MCF-7, 1 μM) it was 6.6 ± 1.1%. The “LC3A/B positive cells ± SD” value stood at 9.9 ± 0.9% in the test on LC3A/B (MCF-7, 0.5 μM) and 12.0 ± 1.4% in the test on LC3A/B (MCF-7, 1 μM).

On to `CC(=O)C[Se]C(=O)c1cc(C(=O)[Se]CC(C)=O)cc(C(=O)[Se]CC(C)=O)c1` [EDAG-8, Se,Se,Se-tris-(2-oxopropyl) benzene-1,3,5-tris-(carboxyselenoate)], for which the “Active caspase 7 ± SD (cells)” value is reported as 7.4 ± 0.8% in the test with caspase 7 (0.5 μM) and 16.3 ± 2.6% with caspase 7 (1 μM). The “Active caspase 9 ± SD (cells)” value in the test on caspase 9 (MCF-7, 0.5 μM) was determined as 15.5 ± 0.5%; in the test with caspase 9 (MCF-7, 1 μM), 22.8 ± 2.4%. The IC50 in test [1] (Homo sapiens, MCF7) amounted to 610 ± 50 nM. Besides, the “Decreased ΔΨm ± SD (cells)” value is on record as 18.7 ± 0.9% in test [2] (MCF-7, 0.5 μM) and 54.2 ± 4.6% in test [2] (MCF-7, 1 μM). In addition, the “Active caspase 8 ± SD (cells)” value came to 8.5 ± 0.8% in the test on caspase 8 (MCF-7, 0.5 μM) and 19.4 ± 2.6% in the test with caspase 8 (MCF-7, 1 μM). Moreover, the “LC3A/B positive cells ± SD” value in the test with LC3A/B (MCF-7, 0.5 μM) worked out at 11.9 ± 1.1%; with LC3A/B (MCF-7, 1 μM), 17.4 ± 1.3%.

For orientation: IC50 means the midpoint of a concentration-inhibition curve.
